Here are results for 26 compounds from US8598168B2 (MethylGene Inc., priority 2006, dated 2013).

Data set [1] has as its system human colon cancer HCT116 cells. Briefly: MTT Assay. The format is cell-based. The following applies: HCT-116, 72 hours, Table 21. As for the experimental part:
Compounds at various concentrations were added to human colon cancer HCT116 cells plated in 96-well plates. Cells were incubated for 72 hours at 37° C. in 5% CO2 incubator. MTT (3-[4,5-dimethylthiazol-2-yl]-2,5 diphenyl tetrazolium bromide, Sigma) was added at a final concentration of 0.5 mg/ml and incubated with the cells for 4 hours before an equal volume of solubilization buffer (50% N,N-dimethylformamide, 20% SDS, pH 4.7) was added onto cultured cells. After overnight incubation, solubilized dye was quantified by colorimetric reading at […] using a reference at 630 nM. OD values were converted to cell numbers according to a standard growth curve of the relevant cell line. The concentration which reduces cell numbers to 50% of those of DMSO-treated cells is determined as MTT IC50.

The target of a further data set is HDAC-1 (Homo sapiens, UniProt Q13547). The data set can be described thus: Inhibition of Histone Deacetylase Enzymatic (HDAC-1) Activity. The following applies: Table 21. The format is biochemical. The protocol: The following protocol was used to assay the compounds of the invention.
Sequence of HDAC-1 (Q13547 whole entry): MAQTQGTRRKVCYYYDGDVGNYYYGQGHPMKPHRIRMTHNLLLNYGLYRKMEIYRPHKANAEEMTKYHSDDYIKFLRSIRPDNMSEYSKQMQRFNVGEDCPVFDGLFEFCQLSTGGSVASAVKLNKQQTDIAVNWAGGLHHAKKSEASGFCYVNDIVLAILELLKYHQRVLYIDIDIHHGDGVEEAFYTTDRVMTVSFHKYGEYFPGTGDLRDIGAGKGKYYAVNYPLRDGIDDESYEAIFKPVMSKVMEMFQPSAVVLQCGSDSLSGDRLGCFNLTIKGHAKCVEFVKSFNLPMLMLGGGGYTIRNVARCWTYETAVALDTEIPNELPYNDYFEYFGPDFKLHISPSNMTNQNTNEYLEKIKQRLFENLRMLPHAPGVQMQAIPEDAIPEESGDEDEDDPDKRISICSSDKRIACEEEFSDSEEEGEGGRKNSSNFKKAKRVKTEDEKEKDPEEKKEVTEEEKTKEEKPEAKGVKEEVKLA
The mixture was pre-incubated for 5 minutes at room temperature. The reaction was started by bringing the temperature to 37° C. and adding 15 μl substrate. Total reaction volume was 50 μl.

A short description of data set [2]: Log D (comparison with previously disclosed compounds). It counts as physicochemical. The following applies: pH 7.4.
For data set [3], the system named is p21 promoter-driven luciferase in HCT116 cells. Briefly: p21WAF1/Cip1 Assay (p21 promoter-driven luciferase reporter). The conditions noted are these: 16 hours treatment, value designated as reference. The format is cell-based, human. The protocol:
HCT116 cells were stably transfected with reporter plasmids encoding the p21 promoter-driven luciferase. Cells were treated with indicated concentration of HDAC inhibitors for 16 hours before cells were harvested and luciferase activity analyzed. The effective concentration (EC) of MS-275 was designated as 1 μM. The ability of HDAC inhibitor was compared with that of MS-275 (T. Suzuki, et. al J. Med. Chem., 1999, 3001-3003).
Background: A reporter such as luciferase makes a cellular process visible.

On to `Nc1ccc(-c2cccs2)cc1NC(=O)c1ccc(CN2CCC(N3CCOCC3)CC2)cc1` [compound 77, N-(2-amino-5-(thiophen-2-yl)phenyl)-4-((4-morpholino-piperidin-1-yl)-methyl)-benzamide], for which the IC50 (in data set [1]; against HDAC-1) was less than 1000 nM in each case. Moreover, in data set [2], the log distribution coefficient (logD) (as a rule, the decadic logarithm of the distribution of all forms, ionised or not, between an organic phase and buffer at a given pH) was 2.59.
For `COCCN1CCN(c2ccc(C(=O)Nc3cc(-c4cccs4)ccc3N)cc2)CC1` [compound 108, N-(2-amino-5-(thiophen-2-yl)phenyl)-4-(4-(2-methoxyethyl)-piperazin-1-yl)benzamide], the IC50 (in data set [1]; against HDAC-1) was less than 1000 nM each time. In addition, the logD in data set [2] is 1.78.
In the case of `CN(C)[C@H]1CC(=O)N(Cc2ccc(C(=O)Nc3cc(-c4cccs4)ccc3N)cc2)C1=O` [compound 242, (S)—N-(2-Amino-5-(thiophen-2-yl)phenyl)-4-((3-(dimethylamino)-2,5-dioxopyrrolidin-1-yl)methyl)benzamide], the IC50 – broadly, the concentration needed to halve the response being measured – is 1000 to 5000 nM in data set [1] and less than 1000 nM at HDAC-1. In data set [2], the logD was 1.81.
Regarding `Nc1ccc(-c2cccs2)cc1NC(=O)c1ccc(CN2CCN(c3ccncc3)CC2)cc1` [compound 85, N-(2-amino-5-(thiophen-2-yl)phenyl)-4-((4-(pyridin-4-yl)piperazin-1-yl)methyl)-benzamide], the 50% inhibitory concentration (IC50) (in data set [1]; at HDAC-1) was less than 1000 nM each time. The same compound yielded a logD in data set [2] of 3.32.
With `Nc1ccc(-c2cccs2)cc1NC(=O)c1ccc(CN2CCN(c3ccccn3)CC2)cc1` [compound 89, N-(2-amino-5-(thiophen-2-yl)phenyl)-4-((4-(pyridin-2-yl)piperazin-1-yl)methyl)-benzamide], the IC50 (in data set [1]; on HDAC-1) was less than 1000 nM throughout. Besides, the pH-dependent lipophilicity (logD) in data set [2] worked out at 3.38.
Regarding `Nc1ccc(-c2cccs2)cc1NC(=O)c1ccc(N2CCN(C3CCCC3)CC2)cc1` [compound 103, N-(2-amino-5-(thiophen-2-yl)phenyl)-4-(4-cyclopentyl-piperazin-1-yl)-benzamide], the IC50 (in data set [1]; against HDAC-1) was less than 1000 nM each time. Moreover, the logD in data set [2] is 2.68.
Consider `CN(C)CCN(C)Cc1ccc(C(=O)Nc2cc(-c3cccs3)ccc2N)cc1` [compound 18, N-(2-amino-5-(thiophen-2-yl)phenyl)-4-(((2-(dimethylamino)ethyl)(methyl)amino)methyl)benzamide], for which the IC50 (in data set [1]; against HDAC-1) was less than 1000 nM throughout. Further, in data set [2], the logD was 1.64.
Take `CCN(C)Cc1ccc(C(=O)Nc2cc(-c3cccs3)ccc2N)cc1` [compound 14, N-(2-amino-5-(thiophen-2-yl)phenyl)-4-((ethyl(methyl)amino)methyl)benzamide]: the IC50 (in data set [1]; against HDAC-1) was less than 1000 nM in each case. The compound further displayed a log distribution coefficient (logD) in data set [2] of 3.2.
As to `Nc1ccc(-c2cccs2)cc1NC(=O)c1ccc(CN2CC[C@H](Nc3cccnc3)C2)cc1` [compound 249, (S)—N-(2-Amino-5-(thiophen-2-yl)phenyl)-4-((3-(pyridin-3-ylamino)pyrrolidin-1-yl)methyl)benzamide], the IC50 (in data set [1]; on HDAC-1) was less than 1000 nM in each case. In data set [2], the log distribution coefficient (logD) was 3.27.
As to `Nc1ccc(-c2cccs2)cc1NC(=O)c1ccc(CN2CCC[C@@H](O)C2)cc1` [compound 11, (R)-N-(2-amino-5-(thiophen-2-yl)phenyl)-4-((3-hydroxypiperidin-1-yl)methyl)benzamide], the half-maximal inhibitory concentration (IC50) (in data set [1]; on HDAC-1) was less than 1000 nM each time. The compound also showed a logD in data set [2] of 3.03.
With `COCCN1CCN(Cc2ccc(C(=O)Nc3cc(-c4cccs4)ccc3N)cc2)CC1` [compound 13, N-(2-amino-5-(thiophen-2-yl)phenyl)-4-((4-(2-methoxyethyl)piperazin-1-yl)methyl)benzamide], the IC50 (in data set [1]; on HDAC-1) was less than 1000 nM in each case. In addition, the logD in data set [2] came out at 2.22.
For `CN1CCN(Cc2ccc(C(=O)Nc3cc(-c4cccs4)ccc3N)cc2)CC1` [compound 78, N-(2-amino-5-(thiophen-2-yl)phenyl)-4-((4-methylpiperazin-1-yl)methyl)-benzamide], the IC50 (in data set [1]; at HDAC-1) was less than 1000 nM each time. The logD in data set [2] came to 2.29.
On to `Nc1ccc(-c2cccs2)cc1NC(=O)c1ccc(N2CCC(N3CCCC3)CC2)cc1` [compound 105, N-(2-amino-5-(thiophen-2-yl)phenyl)-4-(4-(pyrrolidin-1-yl)piperidin-1-yl)benzamide], for which the concentration for half-maximal inhibition (IC50) (in data set [1]; at HDAC-1) was less than 1000 nM in each case. In data set [2], this compound displayed a pH-dependent lipophilicity (logD) of 1.6.
For `COCCN(CCOC)Cc1ccc(C(=O)Nc2cc(-c3cccs3)ccc2N)cc1` [compound 10, N-(2-amino-5-(thiophen-2-yl)phenyl)-4-((bis(2-methoxyethyl)amino)methyl)benzamide], the IC50 (in data set [1]; against HDAC-1) was less than 1000 nM throughout. Also, the logD in data set [2] is 3.1.
With `Nc1ccc(-c2cccs2)cc1NC(=O)c1ccc(CN2CC[C@@H](O)C2)cc1` [compound 83, (R)-N-(2-amino-5-(thiophen-2-yl)phenyl)-4-((3-hydroxy-pyrrolidin-1-yl)methyl)-benzamide], the half-maximal inhibitory concentration (IC50) is 1000 to 5000 nM in data set [1] and less than 1000 nM at HDAC-1. In data set [2], this compound came in with a logD of 2.6.
On the same counts, the results for `Nc1ccc(-c2cccs2)cc1NC(=O)c1ccc(N2CCC(N3CCOCC3)CC2)cc1` [compound 104, N-(2-amino-5-(thiophen-2-yl)phenyl)-4-(4-morpholino-piperidin-1-yl)benzamide] are less than 1000 nM, less than 1000 nM and 2.51.
On the same counts, the results for `CN(C)CCSc1ccc(C(=O)Nc2cc(-c3cccs3)ccc2N)cc1` [compound 106, N-(2-amino-5-(thiophen-2-yl)phenyl)-4-(2-(dimethyl-amino)ethylthio)-benzamide] are 1000 to 5000 nM, less than 1000 nM and 2.85.
`CC(C)N1CCN(c2ccc(C(=O)Nc3cc(-c4cccs4)ccc3N)cc2)CC1` [compound 102, N-(2-amino-5-(thiophen-2-yl)phenyl)-4-(4-isopropyl-piperazin-1-yl)benzamide]: the concentration for half-maximal inhibition (IC50) (in data set [1]; against HDAC-1) was less than 1000 nM in each case. The log distribution coefficient (logD) in data set [2] turned out to be 1.52.
Take `Nc1ccc(-c2cccs2)cc1NC(=O)c1ccc(CN2CCN(Cc3ccccc3)CC2)cc1` [compound 91, N-(2-amino-5-(thiophen-2-yl)phenyl)-4-((4-benzylpiperazin-1-yl)methyl)-benzamide]: the half-inhibitory concentration (IC50) (in data set [1]; against HDAC-1) was less than 1000 nM in each case. This compound registered a log distribution coefficient (logD) in data set [2] of 4.01.
`CCN(CC)Cc1ccc(C(=O)Nc2cc(-c3cccs3)ccc2N)cc1` [compound 79, N-(2-amino-5-(thiophen-2-yl)phenyl)-4-((diethylamino)-methyl)benzamide]: the IC50 (in data set [1]; on HDAC-1) was less than 1000 nM throughout. Further, the logD in data set [2] came to 3.19.
`CN(C)[C@@H]1CCN(Cc2ccc(C(=O)Nc3cc(-c4cccs4)ccc3N)cc2)C1` [compound 9, (R)—N-(2-Amino-5-(thiophen-2-yl)phenyl)-4-((3-(dimethylamino)pyrrolidin-1-yl)methyl)benzamide]: the concentration for half-maximal inhibition (IC50) (in data set [1]; against HDAC-1) was less than 1000 nM in each case. The logD in data set [2] is 2.11.
As for `Nc1ccc(-c2cccs2)cc1NC(=O)c1ccc(CN2CC[C@H](O)C2)cc1` [compound 82, (S)-N-(2-amino-5-(thiophen-2-yl)phenyl)-4-((3-hydroxy-pyrrolidin-1-yl)methyl)-benzamide], the IC50 (in data set [1]; on HDAC-1) was less than 1000 nM each time. The compound also displayed a logD in data set [2] of 2.6.
On to `Nc1ccccc1NC(=O)c1ccc(CNC(=O)OCc2cccnc2)cc1` [MS-275], for which, in data set [3], the “effective concentration (EC) to induce p21 expression” value worked out at 1 µM.
Regarding `Nc1ccc(-c2cccs2)cc1NC(=O)c1ccc(CN2CCN(CCn3ccnc3)CC2)cc1` [compound 80, 4-((4-(2-(1H-imidazol-1-yl)ethyl)-piperazin-1-yl)-methyl)-N-(2-amino-5-(thiophen-2-yl)phenyl)-benzamide], the 50% inhibitory concentration (IC50) (in data set [1]; on HDAC-1) was less than 1000 nM in each case. In data set [2], this compound had a log distribution coefficient (logD) of 1.54.
As to `CN(C)[C@H]1CCN(c2ccc(C(=O)Nc3cc(-c4cccs4)ccc3N)cc2)C1` [compound 101, (S)—N-(2-Amino-5-(thiophen-2-yl)phenyl)-4-(3-(dimethylamino)pyrrolidin-1-yl)benzamide], the IC50 (in data set [1]; on HDAC-1) was less than 1000 nM each time. For the same compound, the logD in data set [2] came out at 1.94.
Turning to `Nc1ccc(-c2cccs2)cc1NC(=O)c1ccc(CN2CCC[C@H]2CN2CCCC2)cc1` [compound 86, (S)-N-(2-amino-5-(thiophen-2-yl)phenyl)-4-((2-(pyrrolidin-1-ylmethyl)-pyrrolidin-1-yl)methyl)-benzamide], the IC50 (in data set [1]; against HDAC-1) was less than 1000 nM throughout. The logD in data set [2] came to 0.86.
